One assay relates to C. difficile 630. Description: C. difficile mouse infection model. It is filed as in vivo, C57BL/6 mice. As to conditions: for rate of C. difficile clearance from feces: halicin 15 mg/kg, metronidazole 50 mg/kg, vehicle 10% PEG 300.
Assay [1] deals with E. coli. It is filed as cell-based.
Assay [2] deals with E. coli strains harboring plasmid-borne antibiotic-resistance genes. It is filed as cell-based.
Assay [3] relates to E. coli, S. aureus, Klebsiella pneumoniae, A. baumannii, and P. aeruginosa. Put plainly: ZINC15 compound validation, growth inhibition against a range of pathogens. The assay is classed as cell-based. The settings on record: LB media.
The subject of assay [4] is ciprofloxacin-resistant gyrA S83A mutant of BW25113. The assay is classed as cell-based, E. coli.
Assay [5] has as its system E. coli in a metabolically repressed, antibiotic-tolerant state. Description: Bacterial cell killing assay, E. coli in nutrient-free buffer (PBS). It is filed as cell-based.
Assay [6] relates to E. coli BW25113. Description: Evolution of resistance (serial passage, spontaneous suppressor generation). The settings on record: 30 days serial passaging in liquid media; seven days on solid media. The assay is classed as cell-based.
Assay [7] deals with E. coli. Description: Growth inhibition checkerboards of halicin in combination. The assay is classed as cell-based.
A further assay has as its system E. coli MC1061. Description: DiSC3(5) assay, E. coli. The assay is classed as cell-based. As to conditions: early-log cells in buffer.
A further assay concerns M. tuberculosis. Put plainly: Bacterial cell killing assay, M. tuberculosis in 7H9 media. As to conditions: 16 μg/ml. The assay is classed as cell-based, Mycobacterium tuberculosis.
The subject of assay [8] is A. baumannii CDC 288. Description: Growth inhibition of pan-resistant A. baumannii CDC 288 in vitro. The assay is classed as cell-based. As to conditions: Acinetobacter baumannii, CDC288, A. baumannii strain 288 (CDC).
The subject of a further assay is A. baumannii 288 cells. Put plainly: Bacterial cell killing assay, A. baumannii CDC 288 in PBS. As to conditions: metabolically repressed. It is filed as cell-based.
The test system of assay [9] is A. baumannii clinical isolates. Description: Growth inhibition of multidrug-resistant clinical isolates, A. baumannii. The assay is classed as cell-based. The settings on record: 36 multidrug-resistant clinical isolates.
The test system of another assay is E. coli persister cells. Put plainly: Killing of E. coli persister cells after ampicillin treatment. The assay is classed as cell-based. The settings on record: cells that remained after treatment with ampicillin.
For the next assay, the system named is S. aureus USA300. Description: Growth inhibition of S. aureus in pH-adjusted media. The assay is classed as cell-based, Staphylococcus aureus.
Assay [10] deals with A. baumannii CDC 288. Description: A. baumannii mouse wound infection model. The assay is classed as in vivo, Balb/c mice. The settings on record: halicin 0.5% w/v topical, 25 hours post-infection.
Assay [11] deals with Pseudomonas aeruginosa clinical isolates. Description: Growth inhibition of multidrug-resistant clinical isolates, P. aeruginosa. It is filed as cell-based. The settings on record: 36 multidrug-resistant clinical isolates.
A further assay deals with ΔnfsAΔnfsB E. coli. It is filed as cell-based. The settings on record: deletion of nfsA and nfsB.
Another assay has as its system C. difficile strain 630. Put plainly: Growth inhibition of C. difficile 630 in vitro. It is filed as cell-based. The settings on record: Clostridioides difficile; C. difficile strain 630, in vitro.
Assay [12] deals with daptomycin-resistant RN4220 strain (Δdsp1). The assay is classed as cell-based, S. aureus.
For assay [13], the system named is E. coli. Description: Growth inhibition of E. coli in pH-adjusted or bicarbonate-supplemented media.
In assay [14] the test system is E. coli BW25113. Put plainly: Growth inhibition assay against E. coli. The assay is classed as cell-based. The settings on record: Escherichia coli, rich growth conditions, read-out: minimum inhibitory concentration (MIC).
Assay [15] deals with Carbapenem-resistant Enterobacteriaceae (CRE) clinical isolates. It is filed as cell-based.
A further assay concerns M. tuberculosis H37Rv. Description: Growth inhibition of M. tuberculosis. The assay is classed as cell-based. As to conditions: Mycobacterium tuberculosis, 7H9 medium, stated as 1×MIC.
The subject of assay [16] is E. coli. It is filed as cell-based. This is another data set of the same source.
The test system of another assay is MRSA. Description: Activity against MRSA. It is filed as cell-based, Staphylococcus aureus.

Values after ≈ are worked out from the molar mass of the structure shown. “Also recorded” adds a separate entry of the source.

For `Cc1ncc([N+](=O)[O-])n1CCO` [Metronidazole, metronidazole, reference compound], in the assay with C. difficile 630, the “rate of C. difficile clearance from feces” value is given as “did not result in enhanced rates of clearance relative to vehicle controls”.
As for `C[C@H]1CN(c2cc3c(cc2[N+](=O)[O-])c(=O)c(C(=O)O)cn3C2CC2)CCN1N=Nc1ccc(S(N)(=O)=O)cc1` [ZINC000100032716, 1-Cyclopropyl-7-[(3S)-3-methyl-4-[(4-sulfamoylphenyl)diazenyl]piperazin-1-yl]-6-nitro-4-oxoquinoline-3-carboxylic acid], in the assay on E. coli [1], the “bactericidal activity against E. coli” value is reported as “bactericidal activity”. Further, in assay [2], the “activity against E. coli harboring resistance determinants” value is recorded as “overcome an array of common resistance determinants” and the “impact of plasmid-borne fluoroquinolone resistance on MIC” value is recorded as “only weakly impacted; also recorded: minor increase in MIC”. The “spectrum of growth inhibitory activity” value in assay [3] was “potent broad-spectrum activity”. In assay [4], the “impact of chromosomal resistance” value is “only weakly impacted”. Moreover, the “smaller change in MIC between gyrA mutant and wildtype E. coli relative to ciprofloxacin” value in [4] (gyrA S83A vs BW25113) is recorded as 4 fold.
In the case of `CC1(C)S[C@@H]2[C@H](NC(=O)[C@H](N)c3ccccc3)C(=O)N2[C@H]1C(=O)O` [ampicillin, reference compound], the “bacterial cell killing, metabolically active E. coli” value in the assay with E. coli [1] is “efficacy against metabolically active cells”. In addition, the “bactericidal activity against metabolically repressed, antibiotic-tolerant E. coli” value in assay [5] was “unable to eradicate E. coli”.
Take `Nc1nnc(Sc2ncc([N+](=O)[O-])s2)s1` [halicin, 5-[(5-nitro-1,3-thiazol-2-yl)sulfanyl]-1,3,4-thiadiazol-2-amine]: the “mice sterilized after 72 hours of treatment” value in the assay on C. difficile 630 (15 mg/kg gavage every 24 hours) is 3 out of 4. Moreover, the “mice sterilized after 96 hours of treatment” value in the assay with C. difficile 630 (15 mg/kg gavage every 24 hours) is reported as 4 out of 4. Also, the “mice free of infection at 96 hours after treatment” value in the assay on C. difficile 630 (15 mg/kg, n=4) turned out to be 100%. The “rate of C. difficile clearance from feces” value in the assay with C. difficile 630 is recorded as “clearance from feces at a greater rate than vehicle or the antibiotic metronidazole”. In addition, the “bacterial cell killing, metabolically active E. coli” value with E. coli [1] was “bacterial cell killing was observed”. For the same compound, in the assay with E. coli BW25113 [6], the “evolution of resistant mutants” value was “not possible to isolate spontaneous suppressor mutants”. In the assay with E. coli [7] (checkerboard), the interaction with kanamycin entry is listed as “synergized with kanamycin”. The interaction with tetracycline result with E. coli [7] (checkerboard) was “antagonized the activity of tetracycline”. For the same compound, in the assay on E. coli [7] (increasing concentrations of environmental Fe^3+), the “interaction with Fe^3+ (FeCl3)” value is “enhanced potency of halicin”. Also, the “change in MIC in the presence of resistance gene relative to antibiotic-susceptible parent strains” value in [2] is given as “No change in halicin MIC”. In addition, the “DiSC3(5) fluorescence change, E. coli” value in the assay with E. coli MC1061 was “immediate decrease in DiSC3(5) fluorescence in a dose-dependent manner”. Further, the “bactericidal activity against M. tuberculosis” value in the assay with M. tuberculosis is given as “rapidly bactericidal”. The MIC with A. baumannii CDC 288 [8] was found to be 1 µg/mL (≈ 3.83 µM); against C. difficile strain 630, 0.5 µg/mL (≈ 1.91 µM); in the assay on E. coli BW25113 [14] it was 2 µg/mL (≈ 7.65 µM); against M. tuberculosis H37Rv it was 16 µg/mL (≈ 61.2 µM). Moreover, the “killing of A. baumannii 288 in antibiotic-tolerant conditions” value in the assay on A. baumannii 288 cells is “able to sterilize A. baumannii 288 cells”. For the same compound, the “growth inhibition of A. baumannii clinical isolates” value in [9] was “strong growth inhibitory activity”. In the assay with E. coli persister cells, the “eradication of E. coli persister cells” value is “able to eradicate E. coli persister cells”. The “bactericidal activity against metabolically repressed, antibiotic-tolerant E. coli” value in assay [5] was “retained bactericidal activity against tolerant cells”. Also, the “potency as a function of media pH, Staphylococcus aureus” value with S. aureus USA300 is given as “halicin potency decreased as pH increased”. Besides, the “bacterial load of wound tissue, one mouse” value with A. baumannii CDC 288 [10] is given as “≈ 10^5 CFU/g”. Besides, in the assay on A. baumannii CDC 288 [10] (below the limit of detection), the “bacterial load of wound tissue, 5 of the 6 mice” value is “less than 10^3 CFU/g”. Also, in assay [11], the “growth inhibition of P. aeruginosa clinical isolates” value is “lack of efficacy”. In addition, the “change in MIC in nitrofurantoin-resistant E. coli” value in the assay on ΔnfsAΔnfsB E. coli was “did not change”. Further, in [12], the “cross-resistance in daptomycin-resistant S. aureus” value is listed as “did not confer cross-resistance to halicin”. The “potency as a function of media pH, E. coli” value with E. coli [13] is “halicin potency decreased as pH increased”. Further, in the assay on E. coli [13] (25 mM sodium bicarbonate in growth medium), the “effect of sodium bicarbonate on growth inhibition” value was “antagonized the action of halicin”. The “growth inhibition of CRE clinical isolates” value in assay [15] was “strong growth inhibitory activity”. Further, the “expression of cell motility genes” value in the assay with E. coli [16] is reported as “rapid downregulation of genes involved in cell motility”. Also, the “expression of iron homeostasis genes” value in the assay on E. coli [16] (sub-lethal concentrations) is listed as “upregulation of genes required for iron homeostasis”. The “activity against MRSA” value with MRSA was “potent activity”.
On to polymyxin B [reference compound], for which the “DiSC3(5) fluorescence change, E. coli” value with E. coli MC1061 is reported as “corresponding increase in fluorescence”.
